Source: patent US20240301319A1, “PERFUMING COMPOSITIONS” (FIRMNICH SA, priority 2017, published 2024)
Counter-ions that a name gives are not always drawn.

Experiments:
[1] = Odor threshold and odor value of perfuming compounds (Tables 4 to 10); details: for Odor Threshold (μg/l air): perfuming compounds having a green note
[2] = Volatility of perfuming compounds (Tables 4 to 10), with top/middle/bottom note type; format: physicochemical
Method in brief: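 Volatility is expressed in μg/l in air. Top notes are 70,000 to 100 μg/l, middle notes 99 to 50 μg/l, and bottom notes 49 to 0.1 μg/l. Compounds are grouped by olfactive family: watery, green, fruity, citrus, sweet, gourmand and woody.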

[3] = Log P (n-octanol/water) of perfuming compounds (Tables 4 to 10)
[4] = Table 6, perfuming compounds having a fruity note
[5] = Table 6, perfuming compounds having a fruity note, note type by volatility
[6] = note type (Top/Middle/Bottom) by volatility, perfuming compounds having a green note
[7] = perfuming compounds having a green note
[8] = n-octanol/water, perfuming compounds having a green note
[9] = Table 10, perfuming compounds having a woody note, note type by volatility
[10] = Table 8, perfuming compounds having a sweet note
[11] = Table 8, perfuming compounds having a sweet note, note type by volatility
[12] = Table 9, perfuming compounds having a gourmand note, note type by volatility

Compound | Odor Threshold (μg/l air) [1] | Volatility [2, 4] | Type [2, 5] | Type [2, 6] | Volatility (μg/l air) [2, 7] | Log P (n-octanol/water) [3, 4] | Log P (n-octanol/water) [3, 8] | further results
CC(=O)CCC=C(C)C [6-METHYL-5-HEPTEN-2-ONE] | 1.06E−01 μg/l air | 5775.94 μg/l air | TOP (perfuming compounds having a volatility ranging from 70,000 to 100 μg/l in air are referred to as “top notes”) | Top | 5775.94 μg/l air | 2.05 | 2.05 | 
N#C/C=C/c1ccccc1 [(E)-3-PHENYL-2-PROPENENITRILE] |  |  |  |  |  |  |  | Odor Threshold ([1]; Table 10, woody note): 8.97E−05 μg/l air; Type [2, 9]: Middle; Volatility ([2]; Table 10, woody note): 66.00 μg/l air; Log P (n-octanol/water) ([3]; Table 10, woody note): 1.98
CCC(C)C(=O)OCCc1ccccc1 (racemic) [(+−)-2-PHENYLETHYL 2-METHYLBUTANOATE] |  | 37.73 μg/l air | Bottom |  |  | 3.64 |  | Odor Threshold [1, 4]: 8.56E−03 μg/l air; Odor Value [1, 4]: 4.41E+03
O=COCc1ccccc1 [BENZYL FORMATE] | 3.23E−01 μg/l air |  |  | Top | 1339.53 μg/l air |  | 1.76 | 
CC(CC=O)c1ccccc1 (racemic) [(+−)-3-PHENYLBUTANAL] | 3.89E−04 μg/l air |  |  | Top | 227.83 μg/l air |  | 2.34 | 
COC(=O)OC1CC/C=C\CCC1 (racemic) | 3.69E−04 μg/l air |  |  | Top | 278.83 μg/l air |  | 3.02 | 
CCCOC(C)OCCc1ccccc1 (stereo not shown) [1-PHENYL-2-(1-PROPOXYETHOXY)ETHANE] | 1.52E−03 μg/l air |  |  | Middle | 59.63 μg/l air |  | 3.58 | 
CC(=O)C(C)O (racemic) [(+−)-3-HYDROXY-2-BUTANONE] | 1.46E−02 μg/l air |  |  | Top | 33382.87 μg/l air |  | −1.03 | Odor Threshold [1, 10]: 1.46E−02 μg/l air; Odor Value [1, 10]: 2.28E+06; Odor Threshold ([1]; Table 9, gourmand note): 1.46E−02 μg/l air; Volatility [2, 10]: 33382.87 μg/l air; Type [2, 11]: Top; Volatility ([2]; Table 9, gourmand note): 33382.87 μg/l air; Type [2, 12]: Top; Log P (n-octanol/water) [3, 10]: −1.03; Log P (n-octanol/water) ([3]; Table 9, gourmand note): −1.03
CCCC(C)COC(=O)C(C)CCC (stereo not shown) [2-METHYLPENTYL 2-METHYLPENTANOATE] | 2.41E−01 μg/l air | 450.33 μg/l air | TOP (perfuming compounds having a volatility ranging from 70,000 to 100 μg/l in air are referred to as “top notes”) | Top | 450.33 μg/l air | 5.13 | 5.13 | 
CC/C=C\CCOC(=O)C(C)CC (racemic) [(+−)-(Z)-3-HEXENYL 2-METHYLBUTANOATE] | 1.96E−02 μg/l air | 833.05 μg/l air | TOP (perfuming compounds having a volatility ranging from 70,000 to 100 μg/l in air are referred to as “top notes”) | Top | 833.05 μg/l air | 3.84 | 3.84 | 
C=CCOC(=O)COc1ccccc1 [ALLYL PHENOXYACETATE] | 1.22E−03 μg/l air | 9.94 μg/l air | Bottom | Bottom | 9.94 μg/l air | 2.04 | 2.04 | Odor Threshold [1, 4]: 1.22E−03 μg/l air; Odor Value [1, 4]: 8.13E+03
CCCCCCCCCCO [1-DECANOL] | 1.13E−02 μg/l air |  |  | Bottom | 31.90 μg/l air |  | 4.10 | 
C=C(C)[C@@H]1CC=C(CO)CC1 | 2.07E−02 μg/l air |  |  | Bottom | 33.78 μg/l air |  | 2.68 | 
CCCC=C1OC(=O)c2ccccc21 [3-BUTYLIDENE-1-BENZO[C]FURANONE] |  |  |  |  |  |  |  | Odor Threshold [1, 10]: 8.65E−04 μg/l air; Odor Value [1, 10]: 1.66E+04; Odor Threshold ([1]; Table 9, gourmand note): 8.65E−04 μg/l air; Volatility [2, 10]: 14.37 μg/l air; Type [2, 11]: Bottom; Volatility ([2]; Table 9, gourmand note): 14.37 μg/l air; Type [2, 12]: Bottom; Log P (n-octanol/water) [3, 10]: 3.12; Log P (n-octanol/water) ([3]; Table 9, gourmand note): 3.12
CC(=O)CCc1ccccc1 [4-PHENYL-2-BUTANONE] | 2.22E−04 μg/l air | 176.55 μg/l air | TOP (perfuming compounds having a volatility ranging from 70,000 to 100 μg/l in air are referred to as “top notes”) | Top | 176.55 μg/l air | 1.79 | 1.79 | 
SCc1ccco1 [2-FURANMETHANETHIOL] |  |  |  |  |  |  |  | Odor Threshold [1, 10]: 1.43E−09 μg/l air; Odor Value [1, 10]: 2.08E+13; Volatility [2, 10]: 29677.31 μg/l air; Type [2, 11]: Top; Log P (n-octanol/water) [3, 10]: 1.70
COCCc1ccccc1 [(2-METHOXYETHYL)BENZENE] | 6.32E−04 μg/l air |  |  | Top | 1239.07 μg/l air |  | 2.33 | 
CCCCC1CCC(=O)O1 (racemic) [(+−)-4-OCTANOLIDE] |  | 108.41 μg/l air | TOP (perfuming compounds having a volatility ranging from 70,000 to 100 μg/l in air are referred to as “top notes”) |  |  | 1.80 |  | Odor Threshold [1, 4]: 2.32E−05 μg/l air; Odor Value [1, 4]: 4.67E+06; Odor Threshold ([1]; Table 9, gourmand note): 2.32E−05 μg/l air; Volatility ([2]; Table 9, gourmand note): 108.41 μg/l air; Type [2, 12]: Top; Log P (n-octanol/water) ([3]; Table 9, gourmand note): 1.80
COc1ccc(CCC(C)=O)cc1 [4-(4-METHOXYPHENYL)-2-BUTANONE] |  | 5.58 μg/l air | Bottom |  |  | 2.06 |  | Odor Threshold [1, 4]: 5.88E−06 μg/l air; Odor Value [1, 4]: 9.49E+05; Odor Threshold [1, 10]: 5.88E−06 μg/l air; Odor Value [1, 10]: 9.49E+05; Odor Threshold ([1]; Table 9, gourmand note): 5.88E−06 μg/l air; Volatility [2, 10]: 5.58 μg/l air; Type [2, 11]: Bottom; Volatility ([2]; Table 9, gourmand note): 5.58 μg/l air; Type [2, 12]: Bottom; Log P (n-octanol/water) [3, 10]: 2.06; Log P (n-octanol/water) ([3]; Table 9, gourmand note): 2.06
COc1ccc(C=O)cc1 [4-METHOXYBENZALDEHYDE] | 1.81E−05 μg/l air |  |  | Middle | 98.47 μg/l air |  | 1.56 | 
C/C=C/C(=O)C1=C(C)C=CCC1(C)C |  |  |  |  |  | 3.33 |  | Odor Threshold ([1]; Table 10, woody note): 3.00E−06 μg/l air; Type [2, 9]: Middle; Volatility ([2]; Table 10, woody note): 91.38 μg/l air; Log P (n-octanol/water) ([3]; Table 10, woody note): 3.33
